pIC50: −log10 of the molar value.
What was measured:
[1] = biological target: T1, HIV Env six-helix bundle (6HB) structure (Human immunodeficiency virus type 1 group M subtype B, UniProt P04579); test: Six-helix bundle (6HB) assay; assay type: cell-based, HIV-1 (strain RF)
T1 construct: H9 cells chronically infected with HIV-1 (H9/HIV-1RF); endogenous in cells; host or cells: H9 cells chronically infected with HIV-1 strain RF (Env is made from the virus in the infected cells, not by transfection)
T1 sequence (P04579 32-519): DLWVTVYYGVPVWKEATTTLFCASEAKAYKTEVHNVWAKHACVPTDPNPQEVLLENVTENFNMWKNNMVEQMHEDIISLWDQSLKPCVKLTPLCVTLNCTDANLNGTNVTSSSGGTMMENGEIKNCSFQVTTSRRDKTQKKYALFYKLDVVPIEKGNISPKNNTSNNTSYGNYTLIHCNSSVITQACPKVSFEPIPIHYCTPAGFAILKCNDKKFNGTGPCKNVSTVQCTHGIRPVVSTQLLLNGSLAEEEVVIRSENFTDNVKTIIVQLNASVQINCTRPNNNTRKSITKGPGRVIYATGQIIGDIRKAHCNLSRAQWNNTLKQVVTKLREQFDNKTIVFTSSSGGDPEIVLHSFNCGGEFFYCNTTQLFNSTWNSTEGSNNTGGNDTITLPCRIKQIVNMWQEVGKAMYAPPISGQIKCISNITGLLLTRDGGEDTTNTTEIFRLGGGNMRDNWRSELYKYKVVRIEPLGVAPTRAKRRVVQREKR
T1 sequence (P04579 520-865): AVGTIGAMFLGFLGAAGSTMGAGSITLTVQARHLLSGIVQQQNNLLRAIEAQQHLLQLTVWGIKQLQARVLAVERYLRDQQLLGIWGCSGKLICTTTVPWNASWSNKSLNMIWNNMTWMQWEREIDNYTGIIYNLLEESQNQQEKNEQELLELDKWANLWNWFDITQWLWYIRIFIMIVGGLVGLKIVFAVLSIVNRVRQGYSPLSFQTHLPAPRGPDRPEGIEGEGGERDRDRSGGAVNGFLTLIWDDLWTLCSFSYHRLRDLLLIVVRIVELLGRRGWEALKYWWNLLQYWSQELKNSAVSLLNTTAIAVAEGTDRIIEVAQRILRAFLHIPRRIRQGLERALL
Method in brief: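 Flow cytometry measured binding of a six-helix-bundle-specific polyclonal antibody, detected with PE-labelled secondary at 4 °C for 45 min, on H9/HIV-1 RF chronically infected cells. Compound was given 30 min at 37 °C before 1 μg/mL soluble CD4 induction for 1 h. Inhibition appears as reduced fluorescence.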

[2] = test system: HIV-1, NL4-3 strain; test: Virus infection assay (virus entry and single-cycle infection); assay type: cell-based; settings: Human immunodeficiency virus 1, NL43, TZM-b1, read-out: Nl4
Method in brief: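 Single-cycle entry/infection read-out: β-galactosidase chemiluminescence measured one day after infection. Compounds were present during a 4 h, 37 °C exposure of TZM-b1 reporter cells to NL4-3 virus at MOI 0.01 plus DEAE-dextran (80 μg/mL final), followed by addition of complete medium.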

Row | Structure (SMILES) | pIC50 [1] | pIC50 [2]
1 | COc1ccc(-c2nc3c(C(=O)N4CCN(C(CO)c5cccc(OC)c5OC)C[C@H]4C)cnn3c(C(F)(F)F)c2C)cc1 (stereo partly drawn) [methanone, [(2R)-4-[1-(2,3-dimethoxyphenyl)-2-hydroxyethyl]-2-methyl-1-piperazinyl][5-(4-methoxyphenyl)-6-methyl-7-(trifluoromethyl)pyrazolo[1,5-α]pyrimidin-3-yl]-] | > 6.00 | > 6.00
2 | COc1ccc(-c2nc3c(C(=O)N4CCN(C(CO)c5ccc(OC)cc5OC)C[C@H]4C)cnn3c(C(F)(F)F)c2C)cc1 (stereo partly drawn) [methanone, [(2R)-4-[1-(2,4-dimethoxyphenyl)-2-hydroxyethyl]-2-methyl-1-piperazinyl][5-(4-methoxyphenyl)-6-methyl-7-(trifluoromethyl)pyrazolo[1,5-α]pyrimidin-3-yl]-] | > 6.00 | > 6.00
3 | COc1ccc(-c2nc3c(C(=O)N4CCN(C(CO)c5ccc(OC)cc5)C[C@H]4C)cnn3c(C(F)(F)F)c2C)cc1 (stereo partly drawn) [methanone, [(2R)-4-[2-hydroxy-1-(4-methoxyphenyl)ethyl]-2-methyl-1-piperazinyl][5-(4-methoxyphenyl)-6-methyl-7-(trifluoromethyl)pyrazolo[1,5-α]pyrimidin-3-yl]-] | > 6.00 | > 6.00
4 | COc1ccc(-c2nc3c(C(=O)N4CCN(C(CO)c5ccc(C(=O)O)s5)C[C@H]4C)cnn3c(C(F)(F)F)c2C)cc1 (stereo partly drawn) [2-thiophenecarboxylic acid, 5-[2-hydroxy-1-[(3R)-4-[[5-(4-methoxyphenyl)-6-methyl-7-(trifluoromethyl)pyrazolo[1,5-α]pyrimidin-3-yl]carbonyl]-3-methyl-1-piperazinyl]ethyl]-] | 5.00 to 5.96 | < 5.00
5 | COc1ccc(-c2nc3c(C(=O)N4CCN([C@@H](C)c5ccccc5C#N)C[C@H]4C)cnn3c(C(F)(F)F)c2C)cc1 [benzonitrile, 2-[(1S)-1-[(3R)-4-[[5-(4-methoxyphenyl)-6-methyl-7-(trifluoromethyl)pyrazolo[1,5-α]pyrimidin-3-yl]carbonyl]-3-methyl-1-piperazinyl]ethyl]-] | > 6.00 | > 6.00
6 | COc1ccc2c(c1)CCc1c-2nc2c(C(=O)N3CCN([C@@H](CO)c4ccccc4)C[C@H]3C)cnn2c1C(F)(F)F [methanone, [5,6-dihydro-3-methoxy-7-(trifluoromethyl)benzo[h]pyrazolo[5,1-b]quinazolin-11-yl][(2R)-4-[(1R)-2-hydroxy-1-phenylethyl]-2-methyl-1-piperazinyl]-] | > 6.00 | > 6.00
7 | COc1ccc(-c2nc3c(C(=O)N4CCN([C@H](CO)c5cccc(OC)c5F)C[C@H]4C)cnn3c(C(F)(F)F)c2C)cc1 [methanone, [(2R)-4-[(1S)-1-(2-fluoro-3-methoxyphenyl)-2-hydroxyethyl]-2-methyl-1-piperazinyl][5-(4-methoxyphenyl)-6-methyl-7-(trifluoromethyl)pyrazolo[1,5-α]pyrimidin-3-yl]-] | > 6.00 | > 6.00
8 | COc1ccc(-c2nc3c(C(=O)N4CCN([C@H](CO)c5ccc(Cl)s5)C[C@H]4C)cnn3c(C(F)(F)F)c2C)cc1 [methanone, [(2R)-4-[(1R)-1-(5-chloro-2-thienyl)-2-hydroxyethyl]-2-methyl-1-piperazinyl][5-(4-methoxyphenyl)-6-methyl-7-(trifluoromethyl)pyrazolo[1,5-α]pyrimidin-3-yl]-] | > 6.00 | > 6.00
9 | COc1ccc(-c2nc3c(C(=O)N4CCN(C(CO)c5cccc(S(C)(=O)=O)c5)C[C@H]4C)cnn3c(C(F)(F)F)c2C)cc1 (stereo partly drawn) [methanone, [(2R)-4-[2-hydroxy-1-[3-(methylsulfonyl)phenyl]ethyl]-2-methyl-1-piperazinyl][5-(4-methoxyphenyl)-6-methyl-7-(trifluoromethyl)pyrazolo[1,5-α]pyrimidin-3-yl]-] | < 5.00 | < 5.00
10 | COc1ccc(-c2nc3c(C(=O)N4CCN([C@@H](C)c5cccnc5)C[C@H]4C)cnn3c(C(F)(F)F)c2C)cc1 [methanone, [5-(4-methoxyphenyl)-6-methyl-7-(trifluoromethyl)pyrazolo[1,5-α]pyrimidin-3-yl][(2R)-2-methyl-4-[(1S)-1-(3-pyridinyl)ethyl]-1-piperazinyl]-] | > 6.00 | > 6.00
11 | COc1ccc(-c2nc3c(C(=O)N4CCN([C@@H](C)c5ccncc5)C[C@H]4C)cnn3c(C(F)(F)F)c2C)cc1 [methanone, [5-(4-methoxyphenyl)-6-methyl-7-(trifluoromethyl)pyrazolo[1,5-α]pyrimidin-3-yl][(2R)-2-methyl-4-[(1S)-1-(4-pyridinyl)ethyl]-1-piperazinyl]-] | > 6.00 | > 6.00
12 | COc1ccc(-c2nc3c(C(=O)N4CCN([C@@H](C)c5cccc(NS(C)(=O)=O)c5)C[C@H]4C)cnn3c(C(F)(F)F)c2C)cc1 [methanesulfonamide, N-[3-[(1S)-1-[(3R)-4-[[5-(4-methoxyphenyl)-6-methyl-7-(trifluoromethyl)pyrazolo[1,5-α]pyrimidin-3-yl]carbonyl]-3-methyl-1-piperazinyl]ethyl]phenyl]-] | > 6.00 | > 6.00
13 | COc1ccc(-c2nc3c(C(=O)N4CCN([C@@H](C)c5ccc(NC(=O)OC(C)(C)C)cc5)C[C@H]4C)cnn3c(C(F)(F)F)c2C)cc1 [carbamic acid, N-[4-[(1S)-1-[(3R)-4-[[5-(4-methoxyphenyl)-6-methyl-7-(trifluoromethyl)pyrazolo[1,5-α]pyrimidin-3-yl]carbonyl]-3-methyl-1-piperazinyl]ethyl]phenyl]-, 1,1-dimethylethyl ester] | < 5.00 | > 6.00
14 | COc1ccc(-c2nc3c(C(=O)N4CCN(C(CO)c5ccc(F)cc5OC)C[C@H]4C)cnn3c(C(F)(F)F)c2C)cc1 (stereo partly drawn) [methanone, [(2R)-4-[1-(4-fluoro-2-methoxyphenyl)-2-hydroxyethyl]-2-methyl-1-piperazinyl][5-(4-methoxyphenyl)-6-methyl-7-(trifluoromethyl)pyrazolo[1,5-α]pyrimidin-3-yl]-] | > 6.00 | > 6.00
15 | COc1ccc(-c2nc3c(C(=O)N4CCN([C@@H](CO)c5cccc(OC)c5F)C[C@H]4C)cnn3c(C(F)(F)F)c2C)cc1 [methanone, [(2R)-4-[(1R)-1-(2-fluoro-3-methoxyphenyl)-2-hydroxyethyl]-2-methyl-1-piperazinyl][5-(4-methoxyphenyl)-6-methyl-7-(trifluoromethyl)pyrazolo[1,5-α]pyrimidin-3-yl]-] | > 6.00 | > 6.00
16 | COc1ccc(-c2nc3c(C(=O)N4CCN([C@@H](C)c5cccc(NC(C)=O)c5)C[C@H]4C)cnn3c(C(F)(F)F)c2C)cc1 [acetamide, N-[3-[(1S)-1-[(3R)-4-[[5-(4-methoxyphenyl)-6-methyl-7-(trifluoromethyl)pyrazolo[1,5-α]pyrimidin-3-yl]carbonyl]-3-methyl-1-piperazinyl]ethyl]phenyl]-] | > 6.00 | > 6.00
17 | CCOc1ncccc1C(CO)N1CCN(C(=O)c2cnn3c(C(F)(F)F)c(C)c(-c4ccc(OC)cc4)nc23)[C@H](C)C1 (stereo partly drawn) [methanone, [(2R)-4-[1-(2-ethoxy-3-pyridinyl)-2-hydroxyethyl]-2-methyl-1-piperazinyl][5-(4-methoxyphenyl)-6-methyl-7-(trifluoromethyl)pyrazolo[1,5-α]pyrimidin-3-yl]-] | > 6.00 | > 6.00
18 | COc1ccc(-c2nc3c(C(=O)N4CCN(C(CO)c5cccc(Br)c5)C[C@H]4C)cnn3c(C(F)(F)F)c2C)cc1 (stereo partly drawn) [methanone, [(2R)-4-[1-(3-bromophenyl)-2-hydroxyethyl]-2-methyl-1-piperazinyl][5-(4-methoxyphenyl)-6-methyl-7-(trifluoromethyl)pyrazolo[1,5-α]pyrimidin-3-yl]-] | > 6.00 | > 6.00
19 | COc1ccc(-c2nc3c(C(=O)N4CCN(C(CO)c5ccoc5)C[C@H]4C)cnn3c(C(F)(F)F)c2C)cc1 (stereo partly drawn) [methanone, [(2R)-4-[1-(3-furanyl)-2-hydroxyethyl]-2-methyl-1-piperazinyl][5-(4-methoxyphenyl)-6-methyl-7-(trifluoromethyl)pyrazolo[1,5-α]pyrimidin-3-yl]-] | > 6.00 | > 6.00
20 | COc1ccc(-c2nc3c(C(=O)N4CCN([C@@H](C)c5cc(F)cc(F)c5F)C[C@H]4C)cnn3c(C(F)(F)F)c2C)cc1 [methanone, [5-(4-methoxyphenyl)-6-methyl-7-(trifluoromethyl)pyrazolo[1,5-α]pyrimidin-3-yl][(2R)-2-methyl-4-[(1S)-1-(2,3,5-trifluorophenyl)ethyl]-1-piperazinyl]-] | > 6.00 | > 6.00
21 | CCOc1ccc(C(CO)N2CCN(C(=O)c3cnn4c(C(F)(F)F)c(C)c(-c5ccc(OC)cc5)nc34)[C@H](C)C2)cn1 (stereo partly drawn) [methanone, [(2R)-4-[1-(6-ethoxy-3-pyridinyl)-2-hydroxyethyl]-2-methyl-1-piperazinyl][5-(4-methoxyphenyl)-6-methyl-7-(trifluoromethyl)pyrazolo[1,5-α]pyrimidin-3-yl]-] | > 6.00 | > 6.00
22 | COc1ccc(-c2nc3c(C(=O)N4CCN([C@H](CO)c5ccco5)C[C@H]4C)cnn3c(C(F)(F)F)c2C)cc1 [methanone, [(2R)-4-[(1R)-1-(2-furanyl)-2-hydroxyethyl]-2-methyl-1-piperazinyl][5-(4-methoxyphenyl)-6-methyl-7-(trifluoromethyl)pyrazolo[1,5-α]pyrimidin-3-yl]-] | > 6.00 | > 6.00

Reference: patent US20090215778A1, “Alpha-substituted Arylmethyl Piperazine Pyrazolo [1,5-alpha]Pyrimidine Amide Derivatives” (priority 2007, published 2009)
